PubChem BioAssay AID248 (DTP/NCI, 2004)
“And” between values parts separate entries of the source, which are not always exact repeats. Equal entries are not always repeated. Inconclusive results and toxic doses are left out.

System: L1210 leukemia ip in BDF1 mice, survival T/C
Experiment: NCI In Vivo Anticancer Drug Screen. Data for tumor model L1210 Leukemia (intraperitoneal) in B6D2F1 (BDF1) mice
Details: endpoint: mean survival time, higher = longer survival
Procedure, shortened: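 Mice bearing the transplanted tumor received compound or vehicle. Survival of the treated group was divided by that of the vehicle-treated control group to give the ratio.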

Structure (SMILES): O=C(Nc1ccc(NC2=NCCN2)cc1)c1ccc(C(=O)Nc2ccc(NC3=NCCN3)cc2)cc1
- T/C (dose: 0.25 mg/kg/injection, schedule: Q01DX001 (ip), vehicle: saline): 109 % of control
- T/C (dose: 0.3 mg/kg/injection, schedule: Q#A X Z (ip), vehicle: saline): 116 % of control
- T/C (dose: 0.45 mg/kg/injection, schedule: Q#A X Z (ip), vehicle: saline): 122 % of control
- T/C (dose: 0.5 mg/kg/injection, schedule: Q01DX001 (ip), vehicle: saline): 110 % of control
- T/C (dose: 0.5 mg/kg/injection, schedule: Q07DX Z (ip), vehicle: saline): 97 % of control
- T/C (dose: 0.63 mg/kg/injection, schedule: Q02DX004 (im), vehicle: saline): 104 % of control
- T/C (dose: 0.9 mg/kg/injection, schedule: Q01DX Z (ip), vehicle: methylcellulose (MC)): 104 % of control
- T/C (dose: 0.94 mg/kg/injection, schedule: Q01DX Z (ip), vehicle: saline): 103 % of control
- T/C (dose: 1.0 mg/kg/injection, schedule: Q01DX001 (ip), vehicle: saline): 109 % of control
- T/C (dose: 1.0 mg/kg/injection, schedule: Q07DX Z (ip), vehicle: saline): 106 % of control
- T/C (dose: 1.0 mg/kg/injection, schedule: Q#A X Z (ip), vehicle: saline): 180 % of control
- T/C (dose: 1.25 mg/kg/injection, schedule: Q01DX Z (ip), vehicle: methylcellulose (MC)): 109 % of control
- T/C (dose: 1.25 mg/kg/injection, schedule: Q02DX004 (im), vehicle: saline): 101 % of control
- T/C (dose: 1.3 mg/kg/injection, schedule: Q01DX Z (ip), vehicle: saline): 120 % of control
- T/C (dose: 1.3 mg/kg/injection, schedule: Q01DX Z (sc), vehicle: saline): 93 % of control
- T/C (dose: 1.5 mg/kg/injection, schedule: Q#A X Z (ip), vehicle: saline): 191 % of control
- T/C (dose: 1.8 mg/kg/injection, schedule: Q01DX Z (ip), vehicle: methylcellulose (MC)): 116 % of control
- T/C (dose: 1.88 mg/kg/injection, schedule: Q01DX Z (ip), vehicle: saline): 200 % of control
- T/C (dose: 2.0 mg/kg/injection, schedule: Q01DX001 (ip), vehicle: saline): 113 % of control
- T/C (dose: 2.0 mg/kg/injection, schedule: Q01DX Z (ip), vehicle: saline): 177 % of control
- T/C (dose: 2.0 mg/kg/injection, schedule: Q01DX Z (sc), vehicle: saline): 101 % of control
- T/C (dose: 2.0 mg/kg/injection, schedule: Q07DX Z (ip), vehicle: saline): 103 % of control
- T/C (dose: 2.5 mg/kg/injection, schedule: Q01DX Z (ip), vehicle: methylcellulose (MC)): 150 % of control
- T/C (dose: 2.5 mg/kg/injection, schedule: Q02DX004 (im), vehicle: saline): 108 % of control
- T/C (dose: 3.0 mg/kg/injection, schedule: Q01DX Z (ip), vehicle: saline): 239 % of control
- T/C (dose: 3.0 mg/kg/injection, schedule: Q01DX Z (sc), vehicle: saline): 113 % of control
- T/C (dose: 3.75 mg/kg/injection, schedule: Q01DX Z (ip), vehicle: saline): 264 % of control
- T/C (dose: 4.0 mg/kg/injection, schedule: Q01DX001 (ip), vehicle: saline): 121 % of control
- T/C (dose: 4.0 mg/kg/injection, schedule: Q03DX Z (ip), vehicle: saline): 121 % of control
- T/C (dose: 5.0 mg/kg/injection, schedule: Q01DX Z (ip), vehicle: methylcellulose (MC)): 293 % of control
- T/C (dose: 5.0 mg/kg/injection, schedule: Q02DX004 (im), vehicle: saline): 106 % of control
- T/C (dose: 6.0 mg/kg/injection, schedule: Q03DX Z (ip), vehicle: saline): 161 % of control
- T/C (dose: 6.0 mg/kg/injection, schedule: Q07DX Z (ip), vehicle: saline): 198 % of control
- T/C (dose: 7.5 mg/kg/injection, schedule: Q01DX Z (ip), vehicle: methylcellulose (MC)): 268 % of control
- T/C (dose: 7.5 mg/kg/injection, schedule: Q01DX Z (ip), vehicle: saline): 265 % of control
- T/C (dose: 8.0 mg/kg/injection, schedule: Q#A X Z (ip), vehicle: saline): 110 % of control
- T/C (dose: 9.0 mg/kg/injection, schedule: Q07DX Z (ip), vehicle: saline): 154 % of control and 193 % of control
- T/C (dose: 10.0 mg/kg/injection, schedule: Q01DX001 (im), vehicle: steriod suspending solution): 103 % of control
- T/C (dose: 10.0 mg/kg/injection, schedule: Q01DX010 (sc), vehicle: olive oil, sesame oil, peanut oil): 101 % of control and 118 % of control
- T/C (dose: 10.0 mg/kg/injection, schedule: Q01DX Z (ip), vehicle: methylcellulose (MC)): 200 % of control
- T/C (dose: 10.0 mg/kg/injection, schedule: Q02DX004 (im), vehicle: olive oil, sesame oil, peanut oil): 153 % of control
- T/C (dose: 12.0 mg/kg/injection, schedule: Q#A X Z (ip), vehicle: saline): 112 % of control
- T/C (dose: 14.0 mg/kg/injection, schedule: Q07DX Z (ip), vehicle: saline): 152 % of control
- T/C (dose: 15.0 mg/kg/injection, schedule: Q01DX Z (ip), vehicle: methylcellulose (MC)): 184 % of control
- T/C (dose: 15.0 mg/kg/injection, schedule: Q01DX Z (ip), vehicle: saline): 161 % of control
- T/C (dose: 16.0 mg/kg/injection, schedule: Q01DX001 (ip), vehicle: saline): 155 % of control
- T/C (dose: 16.0 mg/kg/injection, schedule: Q01DX Z (sc), vehicle: saline): 152 % of control
- T/C (dose: 18.0 mg/kg/injection, schedule: Q01DX001 (ip), vehicle: other): 172 % of control
- T/C (dose: 18.0 mg/kg/injection, schedule: Q#A X Z (ip), vehicle: saline): 109 % of control
- T/C (dose: 20.0 mg/kg/injection, schedule: Q01DX010 (sc), vehicle: olive oil, sesame oil, peanut oil): 87 % of control
- T/C (dose: 20.0 mg/kg/injection, schedule: Q02DX004 (im), vehicle: olive oil, sesame oil, peanut oil): 175 % of control and 196 % of control
- T/C (dose: 21.0 mg/kg/injection, schedule: Q07DX Z (ip), vehicle: saline): 184 % of control
- T/C (dose: 24.0 mg/kg/injection, schedule: Q01DX007 (iv), vehicle: saline): 174 % of control
- T/C (dose: 24.0 mg/kg/injection, schedule: Q01DX Z (ip), vehicle: saline): 120 % of control
- T/C (dose: 24.0 mg/kg/injection, schedule: Q01DX Z (sc), vehicle: saline): 113 % of control
- T/C (dose: 26.0 mg/kg/injection, schedule: Q01DX001 (ip), vehicle: carboxymethylcellulose (CMC)): 210 % of control
- T/C (dose: 26.0 mg/kg/injection, schedule: Q01DX001 (ip), vehicle: other): 154 % of control and 200 % of control
- T/C (dose: 30.0 mg/kg/injection, schedule: Q01DX Z (ip), vehicle: saline): 114 % of control
- T/C (dose: 36.0 mg/kg/injection, schedule: Q01DX007 (iv), vehicle: saline): 210 % of control
- T/C (dose: 36.0 mg/kg/injection, schedule: Q01DX Z (ip), vehicle: saline): 96 % of control
- T/C (dose: 40.0 mg/kg/injection, schedule: Q01DX001 (im), vehicle: steriod suspending solution): 176 % of control
- T/C (dose: 40.0 mg/kg/injection, schedule: Q01DX001 (ip), vehicle: carboxymethylcellulose (CMC)): 194 % of control and 206 % of control
- T/C (dose: 40.0 mg/kg/injection, schedule: Q01DX001 (ip), vehicle: other): 198 % of control and 201 % of control
- T/C (dose: 40.0 mg/kg/injection, schedule: Q02DX004 (im), vehicle: olive oil, sesame oil, peanut oil): 109 % of control and 110 % of control
- T/C (dose: 54.0 mg/kg/injection, schedule: Q01DX007 (iv), vehicle: saline): 233 % of control
- T/C (dose: 60.0 mg/kg/injection, schedule: Q01DX001 (ip), vehicle: carboxymethylcellulose (CMC)): 251 % of control and 296 % of control
- T/C (dose: 60.0 mg/kg/injection, schedule: Q01DX001 (ip), vehicle: other): 224 % of control and 297 % of control
- T/C (dose: 60.0 mg/kg/injection, schedule: Q01DX Z (ip), vehicle: saline): 103 % of control
- T/C (dose: 64.0 mg/kg/injection, schedule: Q01DX010 (oral), vehicle: saline): 108 % of control
- T/C (dose: 72.0 mg/kg/injection, schedule: Q01DX001 (ip), vehicle: saline): 215 % of control and 232 % of control and 264 % of control
- T/C (dose: 75.0 mg/kg/injection, schedule: Q01DX Z (oral), vehicle: saline): 95 % of control
- T/C (dose: 80.0 mg/kg/injection, schedule: Q01DX001 (im), vehicle: saline): 213 % of control
- T/C (dose: 80.0 mg/kg/injection, schedule: Q01DX001 (im), vehicle: steriod suspending solution): 211 % of control
- T/C (dose: 80.0 mg/kg/injection, schedule: Q02DX004 (im), vehicle: olive oil, sesame oil, peanut oil): 87 % of control
- T/C (dose: 81.0 mg/kg/injection, schedule: Q01DX007 (iv), vehicle: saline): 97 % of control
- T/C (dose: 81.0 mg/kg/injection, schedule: Q01DX Z (ip), vehicle: saline): 122 % of control
- T/C (dose: 90.0 mg/kg/injection, schedule: Q01DX001 (ip), vehicle: carboxymethylcellulose (CMC)): 244 % of control
- T/C (dose: 90.0 mg/kg/injection, schedule: Q01DX001 (ip), vehicle: other): 265 % of control
- T/C (dose: 96.0 mg/kg/injection, schedule: Q01DX010 (oral), vehicle: saline): 111 % of control
- T/C (dose: 144.0 mg/kg/injection, schedule: Q01DX010 (oral), vehicle: saline): 97 % of control and 119 % of control
- T/C (dose: 150.0 mg/kg/injection, schedule: Q01DX Z (oral), vehicle: saline): 101 % of control
- T/C (dose: 160.0 mg/kg/injection, schedule: Q01DX001 (im), vehicle: saline): 243 % of control
- T/C (dose: 320.0 mg/kg/injection, schedule: Q01DX001 (im), vehicle: saline): 271 % of control
- T/C (dose: 576.0 mg/kg/injection, schedule: Q01DX001 (ip), vehicle: saline): 110 % of control
- T/C (dose: 576.0 mg/kg/injection, schedule: Q01DX010 (oral), vehicle: saline): 116 % of control
- T/C (dose: 600.0 mg/kg/injection, schedule: Q01DX Z (oral), vehicle: saline): 122 % of control
